The subject of assay [1] is K. pneumoniae 13GNB–429, K. pneumoniae 13GNB–550 and K. oxytoca 13GNB–582. The experiment in a line: MIC, three resistant Klebsiella isolates. Type of assay: cell-based. Conditions: three resistant Klebsiella spp. isolates. The method, then:
MICs for NCL259 and NCL265 (serial two-fold dilutions commencing at 256 µg/mL) were determined (in duplicate) in round bottom 96–well microtitre trays (Sarstedt 82.1582.001), using the broth micro-dilution method recommended by the Clinical and Laboratory Standards Institute (CLSI). We have shown previously that robenidine can chelate calcium ions from cation-adjusted Mueller-Hinton broth, which causes the loss of activity of robenidine. Therefore, LB broth was used in this study. Additionally, considering the low solubility of robenidine and its analogues in aqueous solutions, two-fold serial dilutions of stock solutions of these compounds were prepared in 100% DMSO [21]. The MIC for ampicillin against each isolate was determined for each test to serve as an internal quality control. The MICs of isolates were determined by visual reading and using an EnSpire Multimode Plate Reader 2300 at A600nm.

The test system of the next assay is A. baumannii ATCC 19606. Briefly: Checkerboard assay with PMB. Type of assay: cell-based, Acinetobacter baumannii. Conditions: for MIC, Combination: NCL259 or NCL265 with PMB; for Combination Effect / FICI: with PMB. The method, then:
MICs of NCL259 or NCL265 in the presence of the efflux pump inhibitor, PAβN were determined using a checkerboard assay. […] Briefly, a two-fold serial dilution of each antimicrobial solution was prepared in its appropriate solvent (e.g., DMSO for robenidine analogues and Milli-Q water for PAβN), and 1 μL of each dilution was added from wells 12 to 3 (12.8–0.25 μg/mL for robenidine analogues, and 32–2 μg/mL for PAβN). Thereafter, 89 μL of LB broth was added to each well followed by the addition of 10 μL of bacterial suspension (1–5 × 10^6 CFU/mL) to each well. In this manner, the final concentration of DMSO in each well was 1%. The plate was subsequently incubated at 37 °C for 24 h. The resazurin assay was used for assessment of drug susceptibility of NCL259 and NCL265 (Supplementary Table S1–S6). The same method was also used to test the MICs of NCL259 or NCL265 in the presence of PMB against a range of Gram-negative reference strains (E. coli ATCC 25922, E. coli ATCC 10763, P. aeruginosa PAO1, P. aeruginosa ATCC 27853, A. baumannii ATCC 12457, A. baumannii ATCC 19606, K. pneumoniae ATCC 4352 and K. pneumoniae ATCC 33495). Stock solutions were prepared prior to use (25.6–0.25 mg/mL for robenidine analogues; 12.8–0.25 mg/mL for PMB). The interaction of two antibiotics was calculated as the fractional inhibitory concentration index (FICI) using the following formula:(1) FICI=MICA in combination/MICA alone+MICB in combination/MICB alone where A is NCL259 or NCL265 and B is PAβN or PMB. According to FICI calculations, the interaction between two compounds were interpreted as follows: synergistic (FICI ≤ 0.5); additive or partially synergistic (0.5 < FICI ≤ 1); indifferent (1 < FICI ≤ 4); and antagonistic (FICI > 4), as described previously. The dose reduction index (DRI) was used to describe the difference between the effective doses of NCL259 or NCL265 in combination with PMB or PAβN in comparison to their individual doses, using the following formula:(2) DRI=MICA alone/MICA in combination
Evaluation of DRI is important clinically because it can allow the dose of a potentially toxic drug to be lowered in combination with another compound without reducing the drug’s efficacy. A DRI higher than 1 is viewed as beneficial.

The subject of assay [2] is Gram-negative human and animal isolates, including human KAPE pathogens. Briefly: MIC range over all isolates. Type of assay: cell-based. As to conditions: variety of Gram-negative human and animal isolates (discussion). The method, then: A variety of Gram-negative reference strains (E. coli ATCC 25922, E. coli ATCC 10763, P. aeruginosa PAO1, P. aeruginosa ATCC 27853, A. baumannii ATCC 12457, A. baumannii ATCC 19606, K. pneumoniae ATCC 4352 and K. pneumoniae ATCC 33495) were used for initial screening and combination testing with PMB. The organisms were speciated using biochemical testing and MALDI-TOF mass spectrometry (Bruker, Preston, VIC, Australia). Activity testing of NCL259 and NCL265 was also carried out on 51 extraintestinal clinical E. coli isolates from companion animals, and 83 porcine and bovine enterotoxigenic E. coli (ETEC) isolates from the Australian Centre for Antimicrobial Resistance Ecology collection. […]
MICs for NCL259 and NCL265 (serial two-fold dilutions commencing at 256 µg/mL) were determined (in duplicate) in round bottom 96–well microtitre trays (Sarstedt 82.1582.001), using the broth micro-dilution method recommended by the Clinical and Laboratory Standards Institute (CLSI). […] The MIC for ampicillin against each isolate was determined for each test to serve as an internal quality control. The MICs of isolates were determined by visual reading and using an EnSpire Multimode Plate Reader 2300 at A600nm.

Two compounds from article PMC9598656, “In Vitro Activity of Robenidine Analogues NCL259 and NCL265 against Gram-Negative Pathogens” (Antibiotics, 2022) can be followed below.

Like-named read-outs stand apart in the source and are kept apart here.

Regarding `[H]/N=C(\N)NN=C(CC1CCCCC1)c1ccc(Cl)cc1` [NCL259, (E)-2-(1-(4-chlorophenyl)-2-cyclohexylethylidene)hydrazine-1-carboximidamide], the MIC in assay [1] was greater than 256 µg/mL. Also, the minimal inhibitory concentration (MIC) in assay [1] (read-out: MIC) was greater than 256 µg/mL. Also, in the assay with A. baumannii ATCC 19606, the “MIC, Combination” value turned out to be 1 µg/mL; the “Combination Effect” value is “Additivity (additive or partially synergistic, 0.5 < FICI ≤ 1)”; the FICI amounted to 0.625. For the same compound, in the assay on A. baumannii ATCC 19606 (PMB + NCL259), the “Dose Reduction Index (DRI) PMB:NCL259” value was determined as 8.
Compound `[H]/N=C(\N)NN=C(CCCCCC)c1ccc(Cl)cc1` [NCL265, (E)-2-(1-(4-chlorophenyl)heptylidene)hydrazine-1-carboximidamide] registered a minimum inhibitory concentration (MIC) in assay [1] greater than 256 µg/mL. The MIC in assay [1] (read-out: MIC) is greater than 256 µg/mL. For the same compound, in the assay with A. baumannii ATCC 19606, the “MIC, Combination” value turned out to be 0.5 µg/mL; the “Combination Effect” value was “Additivity (additive or partially synergistic, 0.5 < FICI ≤ 1)”; the FICI is listed as 0.75. Besides, the “Dose Reduction Index (DRI) PMB:NCL265” value with A. baumannii ATCC 19606 (PMB + NCL265) amounted to 4. The MIC range in assay [2] lay in the range of 2 to 32 µg/mL.
